Test [1] has as its system Fibroblasts. In words: Accumulation of lipofuscin AGE-pigment (dityrosine marker). It is filed as cell-based, human. The note with it: Trolox 500 μM; p < 0.01. An excerpt: Principle and protocol: MGO is indirectly involved in the production of another group of toxins called lipofuscin. This pigment, which is seen on skin sections, is yellow in colour. It is poorly characterised as it is formed from an aggregate of different damaged cell components. Reduced functioning of the proteasome allows it to accumulate. Glycation (and therefore alteration) of the proteasome promotes the accumulation of this toxic pigment.
The same “fatiguing” cell stress as above in point 2a was used, alternating two rest periods (+/− of Albizia Julibrissin extract) and 2 periods of stress (+/− the Albizia Julibrissin extract with 500 μM microns of MGO). At the end of the second glycating stress, a dosage of the lipofuscin marker, the dityrosine was performed on the cell and reduced to the number of cells.

In test [2] the test system is MMP1. As to the kind of experiment: Metalloproteinase in culture media after cigarette smoke extract stress (ELISA). It counts as cell-based, human. To be noted: Trolox 500 μM. How it is done: Human dermal fibroblasts are cultured until confluence. Then cells are contacted with or without the test products during 24 hours. Then cells are stressed with an extract of cigarette smoke with or without the test products. After a last incubation with or without the test products, metallo-proteinases MMP1 and MMP2 present in the culture media are measured by ELISA and reduced to the number of cells (evaluated with the Hoescht reagent).

Test [3] relates to human dermal fibroblasts (HDF). As to the kind of experiment: Measurement of carboxymethyl-lysine (CML) released by fibroblasts after MGO glycating stress (Elisa). To be noted: aminoguanidine 0.03%; p < 0.01. It is filed as cell-based. Here is the method: For the tests achieved on cell cultures, a hydro-glycolic extract obtained according to Example A) above comprising 2% of albizine was used at 0.006% diluted in aqueous excipients, of the type of cell culture media.
Principle and protocol: CML, a specific type of AGEs, accumulates during time in particular on the dermis proteins synthesized by fibroblasts. In vitro, on fibroblasts in culture, it is possible to accelerate this phenomenon by a glycating stress.
500 μM of methylglyoxal (MGO) were applied to confluent human dermal fibroblasts (HDF) to provoke AGE formation. After this glycating contact at 37° C. during 4 days, the MGO was removed from the cultures by rinsing and the Albizia Julibrissin extract was applied for 5 days. The supernatants were then removed for Elisa measurement of CML released by the fibroblasts. Cells were counted in parallel from the cell layers. Two independent tests were performed.

For test [4], the system named is soluble bovine elastin. In words: Non enzymatic glycation of elastin with fructose (fluorescence). It counts as biochemical. Here is the method: Non-enzymatic glycation occurring between a protein and a reducing sugar like fructose or glucose is a spontaneous and slow reaction that can be accelerated by heat. In this test, the protein is soluble bovine elastin and the reducing sugar is fructose. They are incubated with or without test products at 50° C. for 9 days. Final products resulting from glycation may be quantified by fluorescence (λex=360 nm and λem=460 nm).

For `Cc1c(C)c2c(c(C)c1O)CCC(C)(C(=O)O)O2` (stereo not drawn) [Trolox], the “% change in dityrosine, positive MGO control” value in test [1] is “*AFU: Arbitrary fluorescence unit; positive MGO control: Trolox 500 μM: −61.1% (p < 0.01)”. Further, the MMP1 in test [2] (control stress 9200 +/− 1590) is 3962 +/− 759 ng/10^6 cells. For the same compound, the “% change in MMP1 vs. control stress” value in test [2] (p < 0.05) is recorded as −57%; p < 0.05.

With `N=C(N)NN` [aminoguanidine], in test [3], the “% change in CML, positive control” value is “Positive control aminoguanidine 0.03%; −41% CML; (p < 0.01)”. Besides, in test [4] (aminoguanidine 0.03%, p < 0.01), the “% change in glycation vs. control” value is “Aminoguanidine 0.03%: −99%; p < 0.01”.

As for Darutoside, in test [4] (15 ppm (combination: 15 ppm Darutoside + 15 ppm extract), elastin + fructose, 50° C., 9 days, control 6096 +/− 438), the Glycation was 5843 +/− 383 UFA.
